The text below walks through data of ChEMBL document CHEMBL1153491, “Discovery of CYT997: a structurally novel orally active microtubule targeting agent” (Bioorg Med Chem Lett, 2009).

As usually defined, the IC50 is the concentration that inhibits the measured activity by half. Low readings indicate higher potency, high ones lower potency. In general, Cmax refers to the highest concentration seen after dosing. The clearance is a measure of how efficiently the substance is removed, as volume per time. Usually half-life stands for the time in which the quantity being followed falls by half. One may read the bioavailability as dose-corrected exposure relative to a reference, in per cent. Low readings indicate little systemic uptake, high ones much systemic uptake.

Activity calls are given as the source filed them. The calls are words filed in the database; no cut-off is given here.

Data set [1] deals with PC-3. As to the kind of experiment: Cytotoxicity against human PC3 cells after 72 hrs by MTT assay. Format: functional, cell-based. The following applies: PC-3, 72 h.
The test system of the next data set is DU-145. As to the kind of experiment: Cytotoxicity against human DU145 cells after 72 hrs by MTT assay. It is filed as functional, cell-based. As to conditions: DU-145, 72 h. (Tetrazolium dyes change colour on reduction, which living cells bring about.)
Data set [2] can be described thus: Apparent volume of distribution in rat at 5 mg/kg, iv. Format: ADME, organism-based. Details: dose 5 mg/kg, route intravenous. As to conditions: in vivo, read-out: Vz.
Data set [3] is described as follows: Cmax in rat at 25 mg/kg, po. It is filed as ADME, organism-based. Details: dose 25 mg/kg, route oral. The following applies: in vivo.
Data set [4] can be described thus: Clearance in rat at 5 mg/kg, iv. Format: ADME, organism-based. Set-up: dose 5 mg/kg, route intravenous. The following applies: in vivo.
Data set [5] can be described thus: Half life in rat at 5 mg/kg, iv. Format: ADME, organism-based. Set-up: dose 5 mg/kg, route intravenous. The following applies: in vivo.
Data set [6] can be described thus: Oral bioavailability in rat at 25 mg/kg, po. The following applies: in vivo. It is filed as ADME, organism-based.
The species named for another data set is Bos taurus. As to the kind of experiment: Inhibition of bovine tubulin polymerization at 3 uM.
A short description of data set [7]: Clearance in rat at 5 mg/kg, iv in presence of captisol. Format: ADME, organism-based. Set-up: dose 5 mg/kg, route intravenous. The following applies: in vivo.
The nature of data set [8]: Half life in rat at 5 mg/kg, iv in presence of captisol. It is filed as ADME, organism-based. Details: dose 5 mg/kg, route intravenous. As to conditions: in vivo.
Data set [9] can be described thus: Apparent volume of distribution in rat at 5 mg/kg, iv in presence of captisol. Format: ADME, organism-based. Set-up: dose 5 mg/kg, route intravenous. The following applies: in vivo, read-out: Vz.
Data set [10] has as its system PC-3. As to the kind of experiment: Disruption of microtubule network in human PC3 cells after 1 hr. It is filed as functional, cell-based.
Data set [11] has as its system PC-3. As to the kind of experiment: Cell cycle arrest in human PC3 cells assessed as accumulation in G2/M phase after 1 hr. It is filed as functional, cell-based.

For the molecule `CCCC(Nc1cncc(-c2ccc(O)c(OC)c2)n1)c1cccc(Cl)c1` (stereo not drawn), the figures for the IC50 in the data set with PC-3 [1] and with DU-145 were 1000 nM and 600 nM, respectively.
With `CCCC(Nc1cncc(-c2ccc(NC(=O)NCC)c(OC)c2)n1)c1cccnc1` (stereo not drawn), the IC50 was determined as 40 nM in the data set on PC-3 [1] and 60 nM with DU-145.
For the molecule `CCCC(Nc1cncc(-c2ccc(O)c(OC)c2)n1)c1ccccc1` (stereo not drawn), the IC50 was 160 nM in the data set with PC-3 [1] and 500 nM with DU-145.
Regarding `CCC[C@H](Nc1cc(-c2ccc(NC(=O)NCC)c(OC)c2)ncn1)c1cccnc1`, the IC50 in the data set with PC-3 [1] and with DU-145 was 100 nM throughout.
`CCCC(Nc1cncc(-c2ccc(NC(=O)NCC)c(CC)c2)n1)c1cccnc1` (stereo not drawn): the IC50 in the data set with PC-3 [1] is 160 nM; in the data set on DU-145, 100 nM.
As to `CCC[C@H](Nc1nc(-c2ccc(NC(=O)NCC)c(OC)c2)ncc1C)c1cccnc1` [LEXIBULIN], the Vd in data set [2] stood at 5.2 L/kg. Moreover, the peak level in [3] (Cmax) was 9.4 µM. The clearance in data set [4] is 36.8 mL/min/kg. For the same molecule, in data set [5], the half-life was 1.6 h. This molecule also gave a bioavailability in [6] of 78%. The IC50 in the data set on PC-3 [1] and with DU-145 was 60 nM throughout.
Turning to `CCCC(Nc1cncc(-c2ccc(O)c(OC)c2)n1)c1cccc(F)c1` (stereo not drawn), the IC50 stood at 600 nM in the data set with PC-3 [1] and 300 nM in the data set on DU-145.
`CCCC(Nc1cncc(-c2ccc(O)c(OC)c2)n1)c1ccc(F)cc1` (stereo not drawn) returned an IC50 with DU-145 of 4000 nM.
With `CCCC(Nc1cncc(-c2ccc(O)c(OC(C)C)c2)n1)c1cccnc1` (stereo not drawn), the IC50 with PC-3 [1] and in the data set on DU-145 was 10000 nM each time.
As to `CCCC(Nc1cncc(-c2ccc(O)c(OC)c2)n1)c1ccc(OC)cc1` (stereo not drawn), the half-maximal inhibitory concentration (IC50) in the data set with PC-3 [1] and in the data set on DU-145 was 3000 nM each time.
Take `CC[C@H](Nc1cncc(-c2ccc(O)c(OC)c2)n1)c1ccccc1`: the IC50 with PC-3 [1] and in the data set with DU-145 was 10000 nM throughout.
Regarding `CCCC(Nc1cncc(-c2ccc(NC(C)=O)c(OC)c2)n1)c1cccnc1` (stereo not drawn), the IC50 in the data set with PC-3 [1] stood at 5000 nM.
Turning to `CCC[C@H](Nc1cncc(-c2ccc(O)c(OC)c2)n1)c1ccccc1`, the concentration for half-maximal inhibition (IC50) was determined as 160 nM in the data set on PC-3 [1] and 200 nM in the data set on DU-145.
As to `CCC[C@H](Nc1cc(C)nc(-c2ccc(NC(=O)NCC)c(OC)c2)n1)c1cccnc1`, the IC50 with PC-3 [1] and in the data set with DU-145 was 200 nM throughout.
Turning to `CCCC(=O)Nc1ccc(-c2cncc(NC(CCC)c3cccnc3)n2)cc1OC` (stereo not drawn), the IC50 in the data set on PC-3 [1] came to 600 nM.
Turning to `CCCC(Nc1cncc(-c2ccc(O)c(OC)c2)n1)c1cccnc1` (stereo not drawn), the IC50 in the data set on PC-3 [1] turned out to be 300 nM; in the data set on DU-145 it was 600 nM.
On to `CCCC(Nc1cncc(-c2ccc(O)c(OCC)c2)n1)c1cccnc1` (stereo not drawn), for which the IC50 in the data set on PC-3 [1] is 1000 nM.
For `CCCC(Nc1cncc(-c2ccc(NC(=O)NCCN(C)C)c(OC)c2)n1)c1cccnc1` (stereo not drawn), the IC50 in the data set on PC-3 [1] and in the data set on DU-145 was 1000 nM each time.
For `CCCC(Nc1cncc(-c2ccc(O)c(OC)c2)n1)c1cccc(OC)c1` (stereo not drawn), the IC50 in the data set on PC-3 [1] turned out to be 10000 nM; with DU-145, 1000 nM.
As for `COc1cc(-c2cncc(N[C@@H](C)c3ccccc3)n2)ccc1O`, the IC50 with PC-3 [1] was 10000 nM; in the data set on DU-145, 3000 nM.
Consider `CCC[C@H](Nc1cncc(-c2ccc(NC(=O)NCC)c(OC)c2)n1)c1cccnc1`, for which the inhibition result in the data set filed under Bos taurus is “Active”. Also, the clearance in [7] was found to be 127 mL/min/kg. For the same molecule, the half-life in data set [8] is 0.6 h. The Vd in [9] amounted to 7.1 L/kg. Also, the outcome in the data set on PC-3 [10] and in the data set on PC-3 [11] was Active.
On to `CCC[C@H](Nc1cc(-c2ccc(NC(=O)NCC)c(OC)c2)nc(C)n1)c1cccnc1`, for which the IC50 was 80 nM with PC-3 [1] and 100 nM in the data set with DU-145.
Consider `CCC[C@H](Nc1ccnc(-c2ccc(NC(=O)NCC)c(OC)c2)n1)c1cccnc1`, for which the IC50 in the data set on PC-3 [1] was 150 nM; with DU-145, 200 nM.
Regarding `CCCC(Nc1cncc(-c2ccc(O)c(OC)c2)n1)c1ccc(Cl)cc1` (stereo not drawn), the IC50 with PC-3 [1] was found to be 20000 nM; in the data set with DU-145, 10000 nM.
